Source: patent US8840898B2, “Immunoconjugates targeting syndecan-1 expressing cells and use thereof” (priority 2004, dated 2014)

What was measured:
[1] = cited from earlier work
[2] = cited from earlier work; remark: listed apart in the source
[3] = tested on: CD138- SUDHL-4 cells adherent to BMSC; assay: Cell proliferation assay ([3H]-thymidine) on cells adherent to BMSC, SUDHL-4; assay type: cell-based, human; details: SUDHL-4 on BMSC; 10 nM; 72 h treatment
Experimental: (§1) The effect of B-B4-DM1 on cell proliferation was measured by the extent of [^3H]-thymidine (NEN Life Science Products, Boston, Mass.) incorporation. Cells (2×10^4 cells/well) were incubated in 96-well culture plates in the presence of 70%-80% confluent BMSCs at 37° C. with or without a test-agent (in triplicate wells). [^3H]-thymidine (0.5 μCi) was then added to each well for the last 8 h. Cells were harvested onto glass filters with an automatic cell harvester (Cambridge Technology, Cambridge, Mass.) and counted using a Micro-Beta® Trilux counter (Wallac, Gaithersburgh, Md.).
(§2) Since adhesion of MM cells to BMSC (bone marrow stromal cells) protects MM cells against drug-induced apoptosis, the effect of B-B4-DM1 on proliferation of CD138^+ (Ocy-My5) MM and CD138^− (SUDHL-4) LB cells adherent to BMSC was evaluated.
(§3) Ocy-My5 (FIG. 3A) or SUDHL-4 (FIG. 3B) cells (2×10^4) were seeded on 70%-80% confluent BMSC for 24 h. Cell proliferation was measured by [^3H]thymidine incorporation following 72 h treatment with B-B4-DM1 (10 nM). Values represent the mean [^3H]-TdR incorporation (cpm) of triplicate cultures.

[4] = tested on: CD138+ MM cell lines MM-1S, MM-1R and Ocy-My5; assay: Colorimetric survival assay (MTT), CD138+ cells; assay type: cell-based, human; details: 1-50 nM or equimolar concentrations, up to 96 h
Experimental: (§4) Survival of CD138^+ and CD138^− cells upon administration of B-B4-DM1, B-B4 and DM1 was examined using a tetrazolium colorimetric assay (CellTiter 96® Non-Radioactive Cell Proliferation Assay; Promega, Wis.), as previously described (Mossmann, 1983). Cells (1×10^4) were plated in 24-well plates in 1 ml RPMI complete medium and then treated as indicated. At the end of each treatment, cells were incubated with 150 μl of Dye Solution and then incubated for 4 h at 37° C. A solubilization/stop solution was then added to each well under vigorous pipetting to dissolve the formazan crystals. Absorbance was measured at 570 nm, and cell viability was estimated as percentage of untreated controls. All experiments were repeated 3 times, and each experimental condition was repeated in triplicate wells in each experiment. Data reported are average values±SD of 3 representative experiments.
(§5) The effects of B-B4-DM1 on survival of CD138^+ (MM-1S, MM-1R, Ocy-My5) and CD138^− cells (SUDHL-4 and WSU-WM) were determined using an MTT assay. […] Cell survival was measured using an MTT assay. […] CD138^+ MM cell lines MM-1S, MM-1R and Ocy-My5 were evaluated as well as CD138^− cell lines including the lymphoma cell line SUDHL4 and the Waldestrom's Macroglobulinemia cell line WSU-WM.

[5] = tested on: CD138+ Ocy-My5 MM cells adherent to BMSC; assay: Cell proliferation assay ([3H]-thymidine) on cells adherent to BMSC, Ocy-My5; assay type: cell-based, human; details: 10 nM, 72 h treatment
Experimental: as §1, §2, §3

CD138+ Ocy-My5 MM cells = assay: Detection of apoptosis (Annexin V / PI); assay type: cell-based, human; details: 10 nM, 48 h exposure
Experimental: Dual staining with FITC-labeled Annexin V and propidium iodide (PI) was carried out to detect induction of apoptotic cell death by B-B4-DM1. After treatment of 1×10^6 tumor cells for 48 h, cells were washed with PBS and re-suspended in 100 µl of HEPES buffer containing Annexin V-FITC and propidium iodide (PI) (Annexin V-FLUOS staining kit; Roche Diagnostic, Indianapolis, Ind.). Following 15 min incubation at room temperature, cells were analyzed using a Coulter Epics XL flow cytometer for the presence of an Annexin V-FITC-positive/PI-negative apoptotic cell population.
[…] Apoptotic cell death was then measured by staining with annexin V and PI and flow cytometric analysis.
Percentages of stained cells are reported in each quadrant. […] Ocy-My5 MM cells were exposed to B-B4 mAb (13.3 μg/ml) or B-B4-DM1 (10 nM) for 48 h, labeled with PI, and analyzed using flow cytometry. Percentages of cells in the S-phase (S) and G2/M phase (G2) are indicated.

[6] = tested on: CD138- cell lines SUDHL4 and WSU-WM; assay: Colorimetric survival assay (MTT), CD138- cells; assay type: cell-based, human; details: 1-50 nM or equimolar concentrations, up to 96 h
Experimental: as §4, §5

## COc1cc2cc(c1Cl)N(C)C(=O)C[C@H](OC(=O)[C@H](C)N(C)C(C)=O)[C@]1(C)O[C@H]1[C@H](C)[C@@H]1C[C@@](O)(NC(=O)O1)[C@H](OC)/C=C/C=C(\C)C2 [maytansine]
[1]
  Adverse effects in clinical trials: serious adverse effects on the central nervous system and gastrointestinal system
[2]; higher
  Cytotoxicity relative to anti-cancer drugs in clinical use that affect tubulin polymerization (Vinca alkaloids, taxol): 200-1000 fold

## COc1cc2cc(c1Cl)N(C)C(=O)C[C@H](OC(=O)[C@H](C)N(C)C(=O)CCS)[C@]1(C)O[C@H]1[C@H](C)[C@@H]1C[C@@](O)(NC(=O)O1)[C@H](OC)/C=C/C=C(\C)C2 [DM1, N^2-deacetyl-N^2-(3-mercapto-1-oxopropyl)-maytansine]
[3]
  Cell proliferation ([3H]thymidine incorporation): cytotoxic to both cell lines
[2]; more cytotoxic
  Cytotoxicity relative to maytansine: 3- to 10 fold
[4]
  Cell survival / growth (MTT assay): equally and highly cytotoxic
[5]
  Cell proliferation ([3H]thymidine incorporation): cytotoxic to both cell lines
CD138+ Ocy-My5 MM cells
  annexin V+/PI- and annexin V+/PI+ fractions (apoptotic cell death): significant increase
[6]
  Cell survival / growth (MTT assay): equally and highly cytotoxic
